{"source": "patent US8497371B2", "about": "“Pipemidic acid derivative autotaxin inhibitors” (University of Memphis Research Foundation, priority 2009, dated 2013)", "origin": "cited, not measured here", "key": {"[1]": {"target": "ATX (Homo sapiens, UniProt Q13822)", "parameters": "conditioned serum-free medium (CCM) from MDA-MB-435 cells as the source of ATX; endogenous in cells; host or cells: MDA-MB-435 cells (about 10x concentrated serum-free conditioned medium)", "conditions": "cited from earlier work"}, "[2]": {"test_system": "melanoma metastasis", "conditions": "micromolar concentrations; cited from earlier work"}}, "data": [{"smiles": "O=[As](O)(O)c1ccc(Cc2ccc([As](=O)(O)O)cc2)cc1", "note": "[NSC 48300]", "values": [{"measurement": "mechanism of inhibition (reported)", "setting": "[1]", "result": "competitive"}, {"measurement": "inhibition of melanoma metastasis", "setting": "[2]", "result": "~100", "unit": "%"}]}]}
